Results taken from article PMC6979384, “Characterization of the plant homeodomain (PHD) reader family for their histone tail interactions” (Epigenetics & Chromatin, 2020).

Assays:
KDM5B (PHD1) = experiment: Peptide pulldown (immunoblot); type: binding, human; conditions: n = 2
Description: (§1) The 31 GST-tagged PHD readers identified in the PHD finger domain array were expressed and purified as previously. Histone peptide arrays and peptide pulldown assays were conducted as recently described (specifically, the optimized protocol from Petell et al. for the former).
(§2) Figure S5. Peptide Pulldowns with KDM7A and KDM5B (PPC2W2). Representative immunoblot analysis of peptide pulldowns for the PHD fingers of KDM7A and KDM5B (PHD1) with the peptides indicated on the top of the image (n=2).

DIDO1 = experiment: dCypher AlphaScreen Phase B (full peptide screen); type: binding, human; conditions: reader 0.1 nM, 100 nM peptide, 23 °C, n = 2
Description: (§3) X-axes are log(protein concentration (M)) at constant peptide concentration (100 nM); Y-axes are AlphaScreen counts, representing relative strength of binding (n = 2; error bars are S.D.). i Heat map represents relative binding to H3 N-terminal peptides (left) by PHD-containing GST-tagged proteins (top) using the dCypher AlphaScreen platform. Protein concentrations can be found in Additional file 5: Table S4. Binding strength is indicated by color gradient from green to yellow (stronger to weaker). […] Alpha counts (n = 2) were normalized individually for each protein to the highest signal for each respective assay. For full dCypher peptide screen data, see Additional file 4: Table S3
(§4) Once the optimal protein concentration ranges for each of the eight readers were determined, we conducted the full dCypher peptide screen (293 histone peptides) (Fig. 3i; Additional file 4: Table S3).
(§5) The dCypher peptide screen assay was performed as previously described. Briefly, 5 μL of GST-tagged reader domains (optimal protein concentration for library screening determined by initial binding curves to candidate peptides) were incubated with 5 μL of 400 nM (100 nM Final) biotinylated histone peptides (EpiCypher) for 30 min at 23 °C in 1× AlphaLISA Epigenetics buffer + epigenetics buffer supplement (PerkinElmer, AL1008) in a 384-well plate. A 10 μL mix of 5 µg/mL (2.5 μg/mL final) glutathione Acceptor beads (PerkinElmer, AL109M) and 10 μg/mL (5 μg/mL final) streptavidin Donor beads (PerkinElmer, 6760002) was prepared in 1× [Epigenetics buffer + supplement] and added to each well. Plates were incubated at 23 °C in subdued lighting for 60 min and AlphaLISA signal measured on a PerkinElmer 2104 EnVision (680 nm laser excitation, 570 nm emission filter ± 50 nm bandwidth).
(§6) Supplementary file 13072_2020_328_MOESM4_ESM.xlsx: Additional file 4: Table S3. dCypher Results. Excel Tab Peptide Phase A is a compiled set of binding data: chromatin reader titration vs. several peptide targets. Data is presented as raw Alpha counts in duplicates at each concentration tested. Excel Tab Peptide Phase B is a compiled set of binding data: chromatin reader at optimized concentrations vs. entire 293 peptide library. Data is presented as the average and standard deviation of duplicates. […] Key: red = strong binding; blue = weak/no binding.

MLL5 = experiment: dCypher AlphaScreen Phase B (full peptide screen); type: binding, human; conditions: reader 0.02 nM, 100 nM peptide, 23 °C, n = 2
Description: as §3, §4, §5, §6

KDM7A PHD finger = experiment: Peptide pulldown (immunoblot); type: binding, human; conditions: n = 2
Description: as §1, §2

KDM7A = experiment: dCypher AlphaScreen Phase B (full peptide screen); type: binding, human; conditions: reader 0.15 nM, 100 nM peptide, 23 °C, n = 2
Description: as §3, §4, §5, §6

KDM5B (PHD3) = conditions: cited from earlier work
Text: While findings between the domain microarrays and peptide microarrays largely agreed, there were some interesting differences. […] It should be noted that the comparison made here is between the H3K4me3 + K9ac + K18ac and the H3K4me0 + K9ac + K18ac peptides. Due to the limited binding, if any, ...

CHD4 (PPCC) = experiment: dCypher AlphaScreen Phase A (reader titration); type: binding, human; conditions: 100 nM peptide, 23 °C, n = 2
Description: (§7) Fig. 3 dCypher histone peptide-binding assays define the PTM recognition preference of PHD proteins with high sensitivity. a–h Binding curves to determine optimal reader protein concentration for full peptide library screening on the dCypher® AlphaScreen® platform (see “Methods”). X-axes are log(protein concentration (M)) at constant peptide concentration (100 nM); Y-axes are AlphaScreen counts, representing relative strength of binding (n = 2; error bars are S.D.). i Heat map represents relative binding to H3 N-terminal peptides (left) by PHD-containing GST-tagged proteins (top) using the dCypher AlphaScreen platform. Protein concentrations can be found in Additional file 5: Table S4. Binding strength is indicated by color gradient from green to yellow (stronger to weaker). The asterisk (*) by MLL5 signifies its general preference for H3K4 methylation. Alpha counts (n = 2) were normalized individually for each protein to the highest signal for each respective assay. For full dCypher peptide screen data, see Additional file 4: Table S3
(§8) We next employed a highly sensitive proximity-based AlphaScreen histone peptide assay (dCypher®) to provide a third and orthogonal approach to analyzing the histone binding preferences for a subset of the 31 PHD proteins with respect to various histone tail PTMs. In this assay, biotinylated peptides are bound to streptavidin “donor” beads and the GST-tagged reader domains bound to Glutathione “acceptor” beads. […] Initial binding assays were conducted for each fusion protein using three peptides [H3 (1–20) with K4me0, H3K4me3 or H3K9me3] to determine the optimal reader domain concentration for full peptide library studies (Fig. 3a–h; Additional file 4: Table S3 and Additional file 5: Table S4). […]
(§9) The dCypher peptide screen assay was performed as previously described. […] Plates were incubated at 23 °C in subdued lighting for 60 min and AlphaLISA signal measured on a PerkinElmer 2104 EnVision (680 nm laser excitation, 570 nm emission filter ± 50 nm bandwidth). […]

PHRF1 (RP) = experiment: dCypher AlphaScreen Phase A (reader titration); type: binding, human; conditions: 100 nM peptide, 23 °C, n = 2
Description: as §7, §8, §9

TRIM66 (PB) = experiment: dCypher AlphaScreen Phase A (reader titration); type: binding, human; conditions: 100 nM peptide, 23 °C, n = 2
Description: as §7, §8, §9

DPF2 (PPC2W2) = experiment: dCypher AlphaScreen Phase B (full peptide screen); type: binding, human; conditions: reader 0.1 nM, 100 nM peptide, 23 °C, n = 2
Description: as §3, §4, §5, §6

H3K4me0 readers = experiment: dCypher AlphaScreen Phase B (full peptide screen), H3K4me0 readers together; type: binding, human; conditions: 100 nM peptide, 23 °C, n = 2
Description: Fig. 3 dCypher histone peptide-binding assays define the PTM recognition preference of PHD proteins with high sensitivity. a–h Binding curves to determine optimal reader protein concentration for full peptide library screening on the dCypher® AlphaScreen® platform (see “Methods”). X-axes are log(protein concentration (M)) at constant peptide concentration (100 nM); Y-axes are AlphaScreen counts, representing relative strength of binding (n = 2; error bars are S.D.). i Heat map represents relative binding to H3 N-terminal peptides (left) by PHD-containing GST-tagged proteins (top) using the dCypher AlphaScreen platform. Protein concentrations can be found in Additional file 5: Table S4. […]
as §4
The dCypher peptide screen assay was performed as previously described. Briefly, 5 μL of GST-tagged reader domains (optimal protein concentration for library screening determined by initial binding curves to candidate peptides) were incubated with 5 μL of 400 nM (100 nM Final) biotinylated histone peptides (EpiCypher) for 30 min at 23 °C in 1× AlphaLISA Epigenetics buffer + epigenetics buffer supplement (PerkinElmer, AL1008) in a 384-well plate. […]

With “H3 (1-20): unmodified H3 N-terminal peptide (1–20)” the “binding in peptide pulldown” value (KDM5B (PHD1)) was “reads H3K4me0”.
For H3K4me1: H3 1-20 [Peptide H3K4me1], the binding (DIDO1) was “also identified interaction of these domains with the H3K4me1 peptide” and the binding (MLL5) was “also identified interaction of these domains with the H3K4me1 peptide”.
In the case of H3K4me3: H3 1-20 [Peptide H3K4me3], the “binding in peptide pulldown” value (KDM7A PHD finger) is given as “binds H3K4me3”, the binding (KDM7A) is given as “reader of H3K4me3” and the reported binding (KDM5B (PHD3)) is given as “reported to bind H3K4me3”.
In the case of H3K9me3: H3 1-20 [Peptide H3K9me3], the “relative binding over a range of protein concentration” value (CHD4 (PPCC)) is reported as “stronger interaction with H3K9me3 compared with the unmodified peptide”, the “binding preference at low versus high protein concentrations” value (PHRF1 (RP)) is reported as “distinct binding preference for the H3K9me3 peptide over the H3K4me0 peptide” and the “relative binding over a range of protein concentration” value (TRIM66 (PB)) is reported as “stronger interaction with H3K9me3 compared with the unmodified peptide”. For the same substance, the binding (DPF2 (PPC2W2)) was “ability to bind to the peptides containing H3K9me3”.
For H3S10p: H3 1-20 [Peptide H3S10p], the “loss of binding on S10 phosphorylation” value (H3K4me0 readers) was “this phenomenon is also observed”.
